Tests used:
Scenedesmus acutus [1] = assay: Peroxidizing phytotoxicity against Scenedesmus acutus assessed as ethane production after 20 hr by gas chromatography; assay type: functional, organism-based; conditions: read-out: pI50 (converted)
[2] = target: T1, Protoporphyrinogen IX oxidase (UniProt C1N1S5); assay: Inhibition of Protoporphyrinogen IX oxidase in Scenedesmus acutus assessed as protoporphyrin IX level per ml of packed cell volume by HPLC; further: test concentration or dose not given here
T1 sequence (whole entry): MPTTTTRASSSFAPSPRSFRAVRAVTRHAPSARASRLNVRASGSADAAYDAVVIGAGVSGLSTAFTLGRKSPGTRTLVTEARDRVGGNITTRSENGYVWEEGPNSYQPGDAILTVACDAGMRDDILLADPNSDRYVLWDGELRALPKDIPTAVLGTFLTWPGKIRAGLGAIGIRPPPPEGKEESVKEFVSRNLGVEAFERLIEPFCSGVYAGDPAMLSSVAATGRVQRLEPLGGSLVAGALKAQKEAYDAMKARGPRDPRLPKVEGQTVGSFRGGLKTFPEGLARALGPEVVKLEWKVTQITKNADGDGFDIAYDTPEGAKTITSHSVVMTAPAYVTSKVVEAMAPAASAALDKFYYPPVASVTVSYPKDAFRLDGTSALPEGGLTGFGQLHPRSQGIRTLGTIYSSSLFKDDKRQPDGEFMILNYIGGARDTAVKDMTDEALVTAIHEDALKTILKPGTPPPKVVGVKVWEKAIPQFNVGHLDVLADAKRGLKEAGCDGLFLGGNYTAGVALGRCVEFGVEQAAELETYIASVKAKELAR

Scenedesmus acutus [3] = assay: Growth inhibition of Scenedesmus acutus assessed as reduction in packed cell volume; assay type: functional, organism-based; conditions: read-out: pI50 (converted)
Scenedesmus acutus [4] = assay: Phytotoxicity against Scenedesmus acutus assessed as reduction in chlorophyll content by spectrophotometry; assay type: functional, organism-based; conditions: read-out: pI50 (converted)
[5] = target: T2, Protoporphyrinogen IX oxidase (Zea mays, UniProt Q9FYV8); assay: Inhibition of Protoporphyrinogen IX oxidase in Zea mays cv. Anjou (maize) seedlings etioplasts homogenates assessed as reduction in protoporphyrin IX production by fluorescence spectroscopy; conditions: read-out: pI50 (converted)
T2 sequence (Q9FYV8 whole entry): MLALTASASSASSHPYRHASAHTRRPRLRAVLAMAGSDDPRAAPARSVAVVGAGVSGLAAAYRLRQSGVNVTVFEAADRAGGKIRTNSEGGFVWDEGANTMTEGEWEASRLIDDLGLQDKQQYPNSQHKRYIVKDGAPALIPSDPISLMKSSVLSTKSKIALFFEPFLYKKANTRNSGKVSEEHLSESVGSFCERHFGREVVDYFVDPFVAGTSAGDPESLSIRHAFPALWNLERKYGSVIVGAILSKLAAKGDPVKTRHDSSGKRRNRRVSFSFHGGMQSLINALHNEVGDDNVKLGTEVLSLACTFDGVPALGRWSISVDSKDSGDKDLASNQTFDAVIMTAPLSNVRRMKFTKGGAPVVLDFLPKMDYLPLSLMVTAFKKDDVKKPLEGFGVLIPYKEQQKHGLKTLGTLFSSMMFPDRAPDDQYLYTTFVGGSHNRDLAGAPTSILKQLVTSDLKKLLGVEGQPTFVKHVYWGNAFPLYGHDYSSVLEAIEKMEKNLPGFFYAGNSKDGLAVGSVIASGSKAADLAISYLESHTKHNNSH

Activity [2] | IC50 [5] | Compound | IC50 (Scenedesmus acutus [1]) | IC50 (Scenedesmus acutus [3]) | IC50 (Scenedesmus acutus [4])
60.2 nmol | 1.2 nM | CC(C)Oc1cc(-n2c(=S)n3n(c2=S)CCCC3)c(F)cc1Cl | 67.6 nM | 7.59 nM | 5.25 nM
20.3 nmol | 7590 nM | Cc1cc(Cl)ccc1/N=c1\sc(=S)n2n1CCCC2 | 513 nM | 457 nM | 275 nM
25.3 nmol | 741 nM | S=c1s/c(=N\c2ccc(Br)cc2)n2n1CCCC2 | 550 nM | 162 nM | 148 nM
34.1 nmol | 120 nM | COC(=O)CSc1cc(/N=c2\sc(=S)n3n2CCCC3)c(F)cc1Cl | 389 nM | 245 nM | 191 nM
50.3 nmol | 6.76 nM | S=c1n(-c2ccc(Cl)cc2)c(=S)n2n1CCCC2 | 50.1 nM | 61.7 nM | 43.7 nM
63.3 nmol | 151 nM | Cc1cc(Cl)ccc1-n1c(=S)n2n(c1=S)CCCC2 | 85.1 nM | 105 nM | 85.1 nM
87.2 nmol | 8.91 nM | C#CCOc1cc(-n2c(=S)n3n(c2=S)CCCC3)c(F)cc1Cl | 7.24 nM | 2.04 nM | 1.7 nM
20.3 nmol | 1100 nM | S=c1s/c(=N\c2ccc(Cl)cc2)n2n1CCCC2 | 550 nM | 339 nM | 234 nM
80.3 nmol | 12 nM | S=c1n(-c2ccc(OCc3ccc(Cl)cc3)cc2)c(=S)n2n1CCCC2 | 22.9 nM | 17.4 nM | 15.5 nM
67.9 nmol | 7.24 nM | S=c1n(-c2ccc(Br)cc2)c(=S)n2n1CCCC2 | 46.8 nM | 64.6 nM | 37.2 nM
30.7 nmol | 813 nM | S=c1s/c(=N\c2ccc(OCc3ccc(Cl)cc3)cc2)n2n1CCCC2 | 120 nM | 21.9 nM | 20 nM

Further lines, the molecule ahead of its results:

Compound | Activity [2] | IC50 [5] | IC50 (Scenedesmus acutus [1]) | IC50 (Scenedesmus acutus [3]) | IC50 (Scenedesmus acutus [4])
COC(=O)CSc1cc(-n2c(=S)n3n(c2=S)CCCC3)c(F)cc1Cl | 56 nmol |  | 158 nM | 186 nM | 141 nM
C#CCOc1cc(/N=c2\sc(=S)n3n2CCCC3)c(F)cc1Cl | 63.5 nmol | 204 nM | 79.4 nM | 7.24 nM | 5.5 nM
S=c1s/c(=N\c2ccccc2)n2n1CCCC2 | 10.8 nmol | > 31600 nM | 4370 nM | 14100 nM | 13800 nM
CC(C)Oc1cc(/N=c2\sc(=S)n3n2CCCC3)c(F)cc1Cl | 30.7 nmol | 617 nM | 166 nM | 13.8 nM | 11.2 nM
Fc1cc(Cl)ccc1-n1c(=S)n2n(c1=S)CCCC2 | 70.3 nmol | 7.24 nM | 27.5 nM | 23.4 nM | 18.2 nM
CCOc1cc(Oc2ccc(C(F)(F)F)cc2Cl)ccc1[N+](=O)[O-] [OXYFLUORFEN] | 65.6 nmol | 7.94 nM | 41.7 nM | 30.9 nM | 21.4 nM
S=c1n(-c2ccccc2)c(=S)n2n1CCCC2 | 13.2 nmol | 3240 nM | 2040 nM | 7940 nM | 6310 nM
Fc1cc(Cl)ccc1/N=c1\sc(=S)n2n1CCCC2 | 31.5 nmol | 1100 nM | 91.2 nM | 120 nM | 67.6 nM
